Laboratory results taken from patent US10294202B2, “Pyrrolidinones as herbicides” (FMC Corporation, priority 2013, dated 2019).

How the values were obtained:
[1] = tested on: sedge, umbrella; test: Test B flooded paddy test; type: in vivo, Cyperus difformis; settings: 500 g ai/ha, Flood; scale of 0 to 100 where 0 is no effect and 100 is complete control
Summary of the method: (§1)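 2-leaf plants; flood 3 cm over soil; compound into paddy water; depth held. Greenhouse 13–15 d. Visual rating vs controls, 0 (no effect) to 100 (complete control); dash = not tested.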

[2] = tested on: barnyardgrass; test: Test B flooded paddy test; type: in vivo, Echinochloa crus-galli; settings: 500 g ai/ha, Flood; scale of 0 to 100 where 0 is no effect and 100 is complete control
Summary of the method: as §1

[3] = tested on: pigweed; test: Test A pre-/postemergence herbicide test; type: in vivo, Amaranthus retroflexus
Summary of the method: (§2)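 Approximately 10 days after treatment in the greenhouse, plants were compared with untreated controls and given a 0–100 visual injury rating. Applications: preemergence directed soil spray; postemergence on 2–10 cm plants at the one- to two-leaf stage.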

[4] = tested on: kochia; test: Test A pre-/postemergence herbicide test; type: in vivo, Kochia scoparia
Summary of the method: as §2

[5] = tested on: ragweed; test: Test A pre-/postemergence herbicide test; type: in vivo, Ambrosia elatior
Summary of the method: as §2

[6] = tested on: barnyardgrass; test: Test A pre-/postemergence herbicide test; type: in vivo, Echinochloa crus-galli
Summary of the method: as §2

[7] = tested on: blackgrass; test: Test A postemergence herbicide test; type: in vivo, Alopecurus myosuroides
Summary of the method: (§3)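 Potted in loam soil/sand blend; postemergence application at 1–2 leaf stage (2–10 cm). Greenhouse ~10 d. Visual injury vs untreated, 0–100 scale; 100 = complete control.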

[8] = tested on: giant foxtail; test: Test A pre-/postemergence herbicide test; type: in vivo, Setaria faberii
Summary of the method: as §2

[9] = tested on: wheat; test: Test A pre-/postemergence herbicide test; type: in vivo, Triticum aestivum; settings: Postemergence
Summary of the method: as §2

[10] = tested on: corn; test: Test A pre-/postemergence herbicide test; type: in vivo, Zea mays; settings: Postemergence
Summary of the method: as §2

[11] = tested on: galium; test: Test A postemergence herbicide test; type: in vivo, Galium aparine
Summary of the method: as §3

[12] = tested on: ryegrass, Italian; test: Test A pre-/postemergence herbicide test; type: in vivo, Lolium multiflorum
Summary of the method: as §2

[13] = tested on: rice; test: Test B flooded paddy test; type: in vivo, Oryza sativa; settings: 500 g ai/ha, Flood; scale of 0 to 100 where 0 is no effect and 100 is complete control
Summary of the method: as §1

[14] = tested on: ducksalad; test: Test B flooded paddy test; type: in vivo, Heteranthera limosa; settings: 500 g ai/ha, Flood; scale of 0 to 100 where 0 is no effect and 100 is complete control
Summary of the method: as §1

[15] = 125 g ai/ha, visual rating, 0 to 100 scale, 0 no effect, 100 complete control, approximately 10 days, preemergence
[16] = Postemergence, 125 g ai/ha, 0 to 100 scale, 0 is no effect, 100 is complete control
[17] = preemergence, 500 g ai/ha, 0 to 100 scale, 0 is no effect and 100 is complete control
[18] = 125 g ai/ha, 0 to 100 scale, 0 is no effect, 100 is complete control
[19] = Postemergence, 125 g ai/ha, visual rating on 0 to 100 scale (0 no effect, 100 complete control), approx. 10 days
[20] = Preemergence, 125 g ai/ha, 0 to 100 scale where 0 is no effect and 100 is complete control
[21] = Preemergence, 500 g ai/ha, visual rating on 0 to 100 scale (0 no effect, 100 complete control)
[22] = Postemergence, 500 g ai/ha, 0 to 100 scale (0 no effect, 100 complete control)
[23] = 125 g ai/ha, visual rating on 0 to 100 scale (0 no effect, 100 complete control), approx. 10 days
[24] = 500 g ai/ha, 0 to 100 scale (0 no effect, 100 complete control)
[25] = Postemergence, 125 g ai/ha, 0 to 100 scale, 0 no effect, 100 complete control
[26] = preemergence, 500 g ai/ha, 0 to 100 scale
[27] = 125 g ai/ha, 0 to 100 scale, 0 no effect, 100 complete control

CCCN1CC(c2ccc(C(F)(F)F)cc2)C(C(=O)Nc2ccccc2F)C1=O (stereo not drawn) [Compound 181]
0: Plant response rating, Sedge, Umbrella [1] | Plant response rating, Barnyardgrass [2] | Plant response rating, Pigweed [3, 15] | Plant response rating, Pigweed [3, 16] | Plant response rating, Pigweed [3, 17] | Plant response rating, Ragweed [5, 15] | Plant response rating, Ragweed [5, 16] | Ragweed plant response rating (0 to 100 scale, 0 is no effect, 100 is complete control) ([5]; Postemergence, 500 g ai/ha) | Plant response rating, Ragweed [5, 17] | Plant response rating, Barnyardgrass [6, 15] | Plant response rating, Barnyardgrass [6, 16] | Barnyardgrass plant response rating (0 to 100 scale, 0 is no effect, 100 is complete control) ([6]; Postemergence, 500 g ai/ha) | Plant response rating, Barnyardgrass [6, 17] | Plant response rating, Foxtail, Giant [8, 16] | Foxtail, Giant plant response rating (0 to 100 scale, 0 is no effect, 100 is complete control) ([8]; Postemergence, 500 g ai/ha) | Plant response rating, Wheat [9, 18] | Wheat plant response rating (0 to 100 scale, 0 is no effect, 100 is complete control) ([9]; 500 g ai/ha) | Plant response rating, Corn [10, 18] | Corn plant response rating (0 to 100 scale, 0 is no effect, 100 is complete control) ([10]; 500 g ai/ha) | Plant response rating, Galium [11, 18] | Galium plant response rating (0 to 100 scale, 0 is no effect, 100 is complete control) ([11]; 500 g ai/ha) | Plant response rating, Ryegrass, Italian [12, 15] | Plant response rating, Ryegrass, Italian [12, 16] | Ryegrass, Italian plant response rating (0 to 100 scale, 0 is no effect, 100 is complete control) ([12]; Postemergence, 500 g ai/ha) | Plant response rating, Ryegrass, Italian [12, 17] | Plant response rating, Rice [13] | Plant response rating, Ducksalad [14]
10: Plant response rating, Kochia [4, 16] | Plant response rating, Foxtail, Giant [8, 15]
40: Plant response rating, Blackgrass [7, 18]
70: Kochia plant response rating (0 to 100 scale, 0 is no effect, 100 is complete control) ([4]; Postemergence, 500 g ai/ha) | Plant response rating, Foxtail, Giant [8, 17]
50: Pigweed plant response rating (0 to 100 scale, 0 is no effect, 100 is complete control) ([3]; Postemergence, 500 g ai/ha) | Plant response rating, Kochia [4, 15] | Blackgrass plant response rating (0 to 100 scale, 0 is no effect, 100 is complete control) ([7]; 500 g ai/ha)
80: Plant response rating, Kochia [4, 17]

O=C1NCC(c2cccc(-n3cccn3)c2)C1C(=O)Nc1ccccc1C(F)(F)F (stereo not drawn) [Compound 338]
0: Plant response rating, Sedge, Umbrella [1] | Plant response rating, Barnyardgrass [2] | Plant response rating, Pigweed [3, 19] | Plant response rating, Pigweed [3, 20] | Pigweed plant response rating [3, 21] | Plant response rating, Kochia [4, 19] | Plant response rating, Kochia [4, 20] | Plant response rating, Ragweed [5, 19] | Plant response rating, Ragweed [5, 20] | Ragweed plant response rating [5, 21] | Plant response rating, Barnyardgrass [6, 19] | Plant response rating, Barnyardgrass [6, 20] | Plant response rating, Blackgrass [7, 23] | Plant response rating, Blackgrass [7, 24] | Plant response rating, Wheat [9, 23] | Plant response rating, Corn [10, 23] | Plant response rating, Corn [10, 24] | Plant response rating, Galium [11, 23] | Plant response rating, Ryegrass, Italian [12, 19] | Plant response rating, Ryegrass, Italian [12, 20] | Ryegrass, Italian plant response rating [12, 21] | Plant response rating, Rice [13] | Plant response rating, Ducksalad [14]
80: Foxtail, Giant plant response rating [8, 21]
60: Plant response rating, Foxtail, Giant [8, 22]
20: Kochia plant response rating [4, 21] | Barnyardgrass plant response rating [6, 21] | Plant response rating, Foxtail, Giant [8, 19]
30: Plant response rating, Barnyardgrass [6, 22] | Plant response rating, Foxtail, Giant [8, 20]

O=C1NCC(c2cnn(CC(F)(F)F)c2)C1C(=O)Nc1ccccc1C(F)(F)F (stereo not drawn) [Compound 300]
0: Plant response rating, Sedge, Umbrella [1] | Plant response rating, Barnyardgrass [2] | Plant response rating, Pigweed [3, 19] | Plant response rating, Pigweed [3, 22] | Plant response rating, Pigweed [3, 20] | Plant response rating, Pigweed [3, 17] | Plant response rating, Kochia [4, 19] | Plant response rating, Kochia [4, 22] | Plant response rating, Kochia [4, 20] | Plant response rating, Kochia [4, 17] | Plant response rating, Ragweed [5, 19] | Plant response rating, Ragweed [5, 22] | Plant response rating, Ragweed [5, 20] | Plant response rating, Ragweed [5, 17] | Plant response rating, Barnyardgrass [6, 19] | Plant response rating, Barnyardgrass [6, 22] | Plant response rating, Barnyardgrass [6, 20] | Plant response rating, Barnyardgrass [6, 17] | Plant response rating, Blackgrass [7, 23] | Plant response rating, Blackgrass [7, 24] | Plant response rating, Foxtail, Giant [8, 19] | Plant response rating, Foxtail, Giant [8, 22] | Plant response rating, Foxtail, Giant [8, 20] | Plant response rating, Foxtail, Giant [8, 17] | Plant response rating, Wheat [9, 23] | Plant response rating, Wheat [9, 24] | Plant response rating, Corn [10, 23] | Plant response rating, Corn [10, 24] | Plant response rating, Galium [11, 23] | Plant response rating, Galium [11, 24] | Plant response rating, Ryegrass, Italian [12, 19] | Plant response rating, Ryegrass, Italian [12, 22] | Plant response rating, Ryegrass, Italian [12, 20] | Ryegrass, Italian plant response rating [12, 21] | Plant response rating, Rice [13] | Plant response rating, Ducksalad [14]

Cc1cc(C2CNC(=O)C2C(=O)Nc2ccccc2F)ccc1F (racemic) [Compound 139]
80: Plant response rating, Barnyardgrass [6, 25]
70: Plant response rating, Barnyardgrass [6, 15]
20: Plant response rating, Pigweed [3, 26] | Blackgrass plant response rating (0 to 100 scale, 0 is no effect, 100 is complete control) ([7]; 500 g ai/ha)
50: Plant response rating, Foxtail, Giant [8, 15]
60: Plant response rating, Barnyardgrass [2]
0: Plant response rating, Sedge, Umbrella [1] | Plant response rating, Pigweed [3, 15] | Plant response rating, Pigweed [3, 25] | Pigweed plant response rating (0 to 100 scale, 0 is no effect, 100 is complete control) ([3]; Postemergence, 500 g ai/ha) | Plant response rating, Kochia [4, 15] | Plant response rating, Kochia [4, 25] | Kochia plant response rating (0 to 100 scale, 0 is no effect, 100 is complete control) ([4]; Postemergence, 500 g ai/ha) | Plant response rating, Ragweed [5, 15] | Plant response rating, Ragweed [5, 25] | Ragweed plant response rating (0 to 100 scale, 0 is no effect, 100 is complete control) ([5]; Postemergence, 500 g ai/ha) | Plant response rating, Ragweed [5, 26] | Plant response rating, Blackgrass [7, 27] | Plant response rating, Wheat [9, 27] | Wheat plant response rating (0 to 100 scale, 0 is no effect, 100 is complete control) ([9]; 500 g ai/ha) | Plant response rating, Corn [10, 27] | Corn plant response rating (0 to 100 scale, 0 is no effect, 100 is complete control) ([10]; 500 g ai/ha) | Plant response rating, Galium [11, 27] | Plant response rating, Ryegrass, Italian [12, 15] | Plant response rating, Ryegrass, Italian [12, 25] | Ryegrass, Italian plant response rating (0 to 100 scale, 0 is no effect, 100 is complete control) ([12]; Postemergence, 500 g ai/ha) | Plant response rating, Ryegrass, Italian [12, 26] | Plant response rating, Rice [13]
100: Plant response rating, Ducksalad [14]
30: Plant response rating, Kochia [4, 26] | Plant response rating, Foxtail, Giant [8, 25] | Foxtail, Giant plant response rating (0 to 100 scale, 0 is no effect, 100 is complete control) ([8]; Postemergence, 500 g ai/ha) | Galium plant response rating (0 to 100 scale, 0 is no effect, 100 is complete control) ([11]; 500 g ai/ha)
90: Barnyardgrass plant response rating (0 to 100 scale, 0 is no effect, 100 is complete control) ([6]; Postemergence, 500 g ai/ha) | Plant response rating, Barnyardgrass ([6]; preemergence, 500 g ai/ha, 0 to 100 scale (0 no effect, 100 complete control)) | Plant response rating, Foxtail, Giant [8, 26]

CSc1cccc(C2CNC(=O)C2C(=O)Nc2ccccc2F)c1 (stereo not drawn) [Compound 287]
50: Plant response rating, Barnyardgrass [6, 19] | Plant response rating, Barnyardgrass [6, 20] | Plant response rating, Foxtail, Giant [8, 20]
0: Plant response rating, Sedge, Umbrella [1] | Plant response rating, Pigweed [3, 19] | Plant response rating, Pigweed [3, 22] | Plant response rating, Pigweed [3, 20] | Plant response rating, Pigweed [3, 17] | Plant response rating, Kochia [4, 19] | Plant response rating, Kochia [4, 22] | Plant response rating, Kochia [4, 20] | Plant response rating, Kochia [4, 17] | Plant response rating, Ragweed [5, 19] | Plant response rating, Ragweed [5, 22] | Plant response rating, Ragweed [5, 20] | Plant response rating, Ragweed [5, 17] | Plant response rating, Blackgrass [7, 23] | Plant response rating, Blackgrass [7, 24] | Plant response rating, Foxtail, Giant [8, 19] | Plant response rating, Foxtail, Giant [8, 22] | Plant response rating, Wheat [9, 23] | Plant response rating, Wheat [9, 24] | Plant response rating, Corn [10, 23] | Plant response rating, Corn [10, 24] | Plant response rating, Galium [11, 23] | Plant response rating, Galium [11, 24] | Plant response rating, Ryegrass, Italian [12, 19] | Plant response rating, Ryegrass, Italian [12, 22] | Plant response rating, Ryegrass, Italian [12, 20] | Ryegrass, Italian plant response rating [12, 21] | Plant response rating, Rice [13]
75: Plant response rating, Ducksalad [14]
30: Plant response rating, Barnyardgrass [2]
80: Plant response rating, Barnyardgrass [6, 22] | Plant response rating, Barnyardgrass [6, 17] | Plant response rating, Foxtail, Giant [8, 17]
